The test system of assay [1] is VIM-2-containing Pseudomonas aeruginosa strain (S-3779). The experiment in a line: Antibacterial activity evaluation test, MIC by broth microdilution (CLSI). Type of assay: cell-based. The conditions noted are these: Pseudomonas aeruginosa. In outline: (§1)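 Overnight Mueller Hinton agar cultures were suspended to 0.5 McFarland, diluted 10-fold and used to inoculate cation-adjusted Mueller Hinton broth containing test compound. Plates were incubated at 35° C. for 16 to 20 hours; MIC (μg/mL) was the lowest concentration without visible growth.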
(Broth dilution looks for growth in wells or tubes with falling amounts of substance.)

Assay [2] deals with NDM-1-containing Klebsiella pneumoniae strain (Y-1007). Described as above. Particulars: Klebsiella pneumoniae. The format is cell-based. In outline: as §1
In assay [3] the test system is OXA-48-containing Klebsiella pneumoniae strain (Y-1062). Described as above. The format is cell-based. The conditions noted are these: Klebsiella pneumoniae. In short, it runs like this: as §1
Assay [4] has as its system IMP-1-containing Pseudomonas aeruginosa strain (S-2838). The description is as above. The format is cell-based. The conditions noted are these: Pseudomonas aeruginosa. In short, it runs like this:
as §1

Assay [5] relates to KPC-2-containing Klebsiella pneumoniae strain (Y-995). The description is as above. The format is cell-based. Particulars: Klebsiella pneumoniae. In outline:
as §1

Assay [6] deals with GES-19 and GES-20-containing Pseudomonas aeruginosa strain (S-3759). Described as above. The format is cell-based. Particulars: Pseudomonas aeruginosa. In short, it runs like this: as §1
The subject of assay [7] is CTX-M-15-containing Escherichia coli strain (TK-1747). Described as above. The format is cell-based. Particulars: Escherichia coli. In short, it runs like this:
as §1

Assay [8] concerns AmpC-derepressed Pseudomonas aeruginosa mutant strain (S-3028). The assay is described as above. The format is cell-based. The conditions noted are these: Pseudomonas aeruginosa. In outline:
as §1

Assay [9] has as its system Pseudomonas aeruginosa strain ATCC27853. The assay is described as above. Particulars: Pseudomonas aeruginosa, ATCC27853. The format is cell-based. In outline: as §1
In assay [10] the test system is multidrug-resistant Pseudomonas aeruginosa strain (S-2838 strain). The assay can be described thus: Test for protection against systemic infection in mouse with multidrug-resistant Pseudomonas aeruginosa. Type of assay: in vivo. Particulars: sc, 72 h, read-out: survival rate 3 days after the inoculation with bacteria. Here is the method:
As mice, ICR male SPF mice (4 weeks old: 10 mice per group) were used. Clinically isolated multidrug-resistant Pseudomonas aeruginosa strain (S-2838 strain) cultured overnight on a Mueller-Hinton agar plate at 37° C. was cultured on a cation-adjusted Mueller Hinton medium for 5 hours, and then diluted 20-fold with a 10% mucin/phosphate buffer, thereby preparing an inoculum. An infection was induced by intraperitoneally inoculating the mice with the inoculum at 0.5 mL (about 10^6 CFU/mouse). Each test compound was dissolved in physiological saline, and 1 hour after the infection, the compound was subcutaneously administered once to the mice at 40 mg/kg. The control group was administered with the same amount of physiological saline used as a vehicle. The number of surviving mice was recorded 3 days after the infection.
A test for protection against systemic infection in a mouse with multidrug-resistant Pseudomonas aeruginosa was performed in the same manner as in Test Example 2.

In brackets after ≈: the same amount, converted by molar mass.

As usually defined, the MIC is the least concentration at which growth counts as inhibited. Low readings indicate inhibition by little substance, high ones a need for much substance. Turning to `Nc1nc(/C(=N/OC2(C(=O)O)CC2)C(=O)N[C@@H]2C(=O)N3C[C@@](C(=O)O)(N4CCN(NC(=O)CCNC(=O)C(=O)c5ccc(O)c(O)c5Cl)C4=O)S[C@H]23)cs1` [Example 31, (3R,5R,6R)-6-((Z)-2-(2-aminothiazol-4-yl)-2-((1-carboxycyclopropoxy)imino)acetamido)-3-(3-(3-(2-(2-chloro-3,4-dihydroxyphenyl)-2-oxoacetamido)propanamido)-2-oxoimidazolidin-1-yl)-7-oxo-4-thia-1-azabicyclo[3.2.0]heptane-3-carboxylic acid], the MIC in assay [1] was found to be 0.25 µg/mL (≈ 0.309 µM); in [2] it was 0.12 µg/mL (≈ 0.148 µM); in assay [3], 1 µg/mL (≈ 1.23 µM); in assay [4], 1 µg/mL (≈ 1.23 µM); in assay [5], 0.12 µg/mL (≈ 0.148 µM); in assay [6] it was 0.5 µg/mL (≈ 0.617 µM). Further, the MIC in assay [7] is 1 µg/mL (≈ 1.23 µM); in assay [8], below 0.06 µg/mL; in assay [9], 0.25 µg/mL (≈ 0.309 µM). In assay [10], the responders at 40 mg/kg was at least 90%.
With `COCC(NC(=O)C(=O)c1ccc(O)c(O)c1Cl)C(=O)NN1CCN([C@]2(C(=O)O)CN3C(=O)C(NC(=O)/C(=N\OC(C)(C)C(=O)O)c4csc(N)n4)[C@H]3S2)C1=O` (stereo partly drawn) [Example 139, (3R,5R,6R)-6-((Z)-2-(2-aminothiazol-4-yl)-2-(((2-carboxypropan-2-yl)oxy)imino)aceta-mido)-3-(3-((R)-2-(2-(2-chloro-3,4-dihy-droxyphenyl)-2-oxo-acetamido)-3-methoxy-propanamido)-2-oxo-imidazolidin-1-yl)-7-oxo-4-thia-1-azabicyclo-[3.2.0]heptane-3-car-boxylic acid], the MIC amounted to 1 µg/mL (≈ 1.19 µM) in [1]; 0.12 µg/mL (≈ 0.142 µM) in assay [2]; 4 µg/mL (≈ 4.75 µM) in assay [3]; 0.5 µg/mL (≈ 0.594 µM) in assay [4]; 1 µg/mL (≈ 1.19 µM) in [5]; 2 µg/mL (≈ 2.37 µM) in [6]. For the same molecule, the results for the MIC in [7], in assay [8] and in assay [9] were 2 µg/mL (≈ 2.37 µM), 0.5 µg/mL (≈ 0.594 µM) and 1 µg/mL (≈ 1.19 µM), respectively. The responders at 40 mg/kg in assay [10] was at least 90%.
With `CC(C)(O/N=C(\C(=O)NC1C(=O)N2C[C@@](C(=O)O)(N3CCN(NC(=O)CCNC(=O)/C(=N\O)c4ccc(O)c(O)c4Cl)C3=O)S[C@H]12)c1csc(N)n1)C(=O)O` (stereo partly shown) [Example 122], the MIC in [1] is 2 µg/mL (≈ 2.42 µM); in [2] it was below 0.06 µg/mL; in [3] it was 1 µg/mL (≈ 1.21 µM); in assay [4], 2 µg/mL (≈ 2.42 µM); in assay [5], 0.5 µg/mL (≈ 0.604 µM); in assay [6], 2 µg/mL (≈ 2.42 µM). In addition, the figures for the MIC in assay [7], in [8] and in assay [9] were 0.5 µg/mL (≈ 0.604 µM), 2 µg/mL (≈ 2.42 µM) and 1 µg/mL (≈ 1.21 µM), respectively. For the same molecule, in assay [10], the responders at 40 mg/kg was at least 90%.
For `Nc1nc(/C(=N/OC2(C(=O)O)CCC2)C(=O)N[C@@H]2C(=O)N3C[C@@](C(=O)O)(N4CCN(NC(=O)C(=O)c5ccc(O)c(O)c5Cl)C4=O)S[C@H]23)cs1` [Example 19, (3R,5R,6R)-6-((Z)-2-(2-aminothiazol-4-yl)-2-((-1-carboxycyclobutoxy)imino)acetamido)-3-(3-(2-(2-chloro-3,4-dihydroxyphenyl)-2-oxoacetamido)-2-oxoimidazolidin-1-yl)-7-oxo-4-thia-1-azabicyclo[3.2.0]heptane-3-carboxylic acid], the MIC in [1] is 0.25 µg/mL (≈ 0.332 µM); in assay [2], below 0.06 µg/mL; in [3], 0.12 µg/mL (≈ 0.159 µM); in [4], 0.25 µg/mL (≈ 0.332 µM); in assay [5], 0.25 µg/mL (≈ 0.332 µM); in [6] it was 0.25 µg/mL (≈ 0.332 µM). The results for the minimum inhibitory concentration (MIC) in [7], in [8] and in [9] were 0.5 µg/mL (≈ 0.664 µM), 2 µg/mL (≈ 2.66 µM) and 0.25 µg/mL (≈ 0.332 µM), respectively. Besides, the responders at 40 mg/kg in [10] is at least 90%.
As for `CC(C)[C@H](O/N=C(\C(=O)NC1C(=O)N2C[C@@](C(=O)O)(N3CCN(NC(=O)C(=O)c4ccc(O)c(O)c4Cl)C3=O)S[C@H]12)c1csc(N)n1)C(=O)O` (stereo partly drawn) [Example 114, (3R,5R,6R)-6-((Z)-2-(2-aminothiazol-4-yl)-2-(((S)-1-carboxy-2-methylpropoxy)imino)-acetamido)-3-(3-(2-(2-chloro-3,4-dihydroxy-phenyl)-2-oxoaceta-mido)-2-oxoimidazol-idin-1-yl)-7-oxo-4-thia-1-azabicyclo[3.2.0]-heptane-3-carboxylic acid], the MIC was 1 µg/mL (≈ 1.32 µM) in assay [1]; below 0.06 µg/mL in [2]; 0.25 µg/mL (≈ 0.331 µM) in assay [3]; 4 µg/mL (≈ 5.3 µM) in assay [4]; 0.25 µg/mL (≈ 0.331 µM) in assay [5]; 2 µg/mL (≈ 2.65 µM) in assay [6]. In addition, the MIC turned out to be 0.25 µg/mL (≈ 0.331 µM) in assay [7], 1 µg/mL (≈ 1.32 µM) in assay [8] and 2 µg/mL (≈ 2.65 µM) in assay [9]. Moreover, the responders at 40 mg/kg in assay [10] was at least 90%.
Turning to `CC(C)(O/N=C(\C(=O)N[C@@H]1C(=O)N2C[C@@](C(=O)O)(N3CCN(NC(=O)C(=O)c4ccc(O)c(O)c4Cl)C3=O)S[C@H]12)c1nsc(N)n1)C(=O)O` [Example 23, (3R,5R,6R)-6-((Z)-2-(5-amino-1,2,4-thiadiazol-3-yl)-2-(((2-carboxypropan-2-yl)oxy)imino)acetamido)-3-(3-(2-(2-chloro-3,4-dihydroxyphenyl)-2-oxoacetamido)-2-oxoimidazolidin-1-yl)-7-oxo-4-thia-1-azabicyclo[3.2.0]heptane-3-carboxylic acid], the MIC in [1] was 0.25 µg/mL (≈ 0.337 µM); in [2], below 0.06 µg/mL; in assay [3], 0.5 µg/mL (≈ 0.674 µM); in [4] it was 1 µg/mL (≈ 1.35 µM); in assay [5], 0.25 µg/mL (≈ 0.337 µM); in assay [6], 1 µg/mL (≈ 1.35 µM). Further, the MIC in [7] was found to be 0.25 µg/mL (≈ 0.337 µM); in assay [8] it was 0.5 µg/mL (≈ 0.674 µM); in assay [9], 0.25 µg/mL (≈ 0.337 µM). For the same molecule, the responders at 40 mg/kg in assay [10] is at least 90%.
As for `CC(C)(O/N=C(\C(=O)NC1C(=O)N2C[C@@](C(=O)O)(N3CCN(NC(=O)/C(=N\O)c4ccc(O)c(O)c4Cl)C3=O)S[C@H]12)c1csc(N)n1)C(=O)O` (stereo partly shown) [Example 117], the MIC in [1] is 0.5 µg/mL (≈ 0.661 µM); in assay [2], below 0.06 µg/mL; in assay [3] it was 0.5 µg/mL (≈ 0.661 µM); in [4], 2 µg/mL (≈ 2.65 µM); in [5], 0.25 µg/mL (≈ 0.331 µM); in assay [6], 2 µg/mL (≈ 2.65 µM). Moreover, the MIC in assay [7] was 0.12 µg/mL (≈ 0.159 µM); in [8], 0.25 µg/mL (≈ 0.331 µM); in [9], 2 µg/mL (≈ 2.65 µM). Further, in [10], the responders at 40 mg/kg is at least 90%.

Source of the values: patent US20220241249A1, “PHARMACEUTICAL COMPOSITION AND KIT CONTAINING NOVEL PENAM DERIVATIVE OR SALT THEREOF AND ONE OR MORE COMPOUNDS SELECTED FROM beta-LACTAMASE INHIBITORY COMPOUND AND ANTIBACTERIAL COMPOUND OR SALTS THEREOF” (priority 2019, published 2022).
